Data: ChEMBL document CHEMBL2203234, “Optimisation of imidazole compounds as selective TAAR1 agonists: discovery of RO5073012” (Bioorg Med Chem Lett, 2012)

Columns and labels:
[1] = target: C-C chemokine receptor type 2 (Homo sapiens) (UniProt P41597); experiment: Inhibition of human CCR2 receptor at 10 uM by CEREP assay
[2] = target: Melanocortin receptor 4 (Homo sapiens) (UniProt P32245); experiment: Inhibition of human MC4 receptor at 10 uM by CEREP assay
[3] = target: Muscarinic acetylcholine receptor M2 (Homo sapiens) (UniProt P08172); experiment: Inhibition of human M2 receptor at 10 uM by CEREP assay
Sequence of Muscarinic acetylcholine receptor M2 (Homo sapiens) (P08172 whole entry): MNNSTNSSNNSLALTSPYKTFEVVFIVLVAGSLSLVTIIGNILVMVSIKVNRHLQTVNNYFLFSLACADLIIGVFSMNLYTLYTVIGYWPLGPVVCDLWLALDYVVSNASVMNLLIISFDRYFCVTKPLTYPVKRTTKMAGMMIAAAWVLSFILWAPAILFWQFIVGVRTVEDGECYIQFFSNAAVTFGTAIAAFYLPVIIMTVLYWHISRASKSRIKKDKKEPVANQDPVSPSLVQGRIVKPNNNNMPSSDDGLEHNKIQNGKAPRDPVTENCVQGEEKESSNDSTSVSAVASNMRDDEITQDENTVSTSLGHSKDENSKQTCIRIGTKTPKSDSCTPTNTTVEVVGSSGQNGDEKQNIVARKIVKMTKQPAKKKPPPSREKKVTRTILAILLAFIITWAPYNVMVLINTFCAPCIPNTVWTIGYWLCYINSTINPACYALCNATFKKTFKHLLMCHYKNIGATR

[4] = target: Muscarinic acetylcholine receptor M3 (Homo sapiens) (UniProt P20309); experiment: Inhibition of human M3 receptor at 10 uM by CEREP assay
[5] = target: Muscarinic acetylcholine receptor M5 (Homo sapiens) (UniProt P08912); experiment: Inhibition of human M5 receptor at 10 uM by CEREP assay
Sequence of Muscarinic acetylcholine receptor M5 (Homo sapiens) (P08912 whole entry): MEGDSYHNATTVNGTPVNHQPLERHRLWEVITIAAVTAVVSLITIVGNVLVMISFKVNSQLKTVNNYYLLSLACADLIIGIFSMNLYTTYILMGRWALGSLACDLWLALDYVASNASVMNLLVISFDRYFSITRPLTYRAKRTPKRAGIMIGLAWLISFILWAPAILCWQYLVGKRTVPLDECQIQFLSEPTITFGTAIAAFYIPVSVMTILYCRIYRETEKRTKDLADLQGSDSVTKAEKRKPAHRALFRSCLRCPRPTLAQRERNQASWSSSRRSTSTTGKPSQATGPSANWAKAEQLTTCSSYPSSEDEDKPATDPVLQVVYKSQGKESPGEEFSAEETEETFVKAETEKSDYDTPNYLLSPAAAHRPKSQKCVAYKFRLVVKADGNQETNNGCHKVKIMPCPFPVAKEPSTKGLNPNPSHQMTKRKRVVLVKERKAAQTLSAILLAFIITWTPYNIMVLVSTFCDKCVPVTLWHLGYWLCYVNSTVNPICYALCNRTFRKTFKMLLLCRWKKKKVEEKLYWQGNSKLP

[6] = target: Neuromedin-K receptor (Homo sapiens) (UniProt P29371); experiment: Inhibition of human Nk3 receptor at 10 uM by CEREP assay
[7] = target: Neuropeptide Y receptor type 2 (Homo sapiens) (UniProt P49146); experiment: Inhibition of human Y2 receptor at 10 uM by CEREP assay
Sequence of Neuropeptide Y receptor type 2 (Homo sapiens) (P49146 whole entry): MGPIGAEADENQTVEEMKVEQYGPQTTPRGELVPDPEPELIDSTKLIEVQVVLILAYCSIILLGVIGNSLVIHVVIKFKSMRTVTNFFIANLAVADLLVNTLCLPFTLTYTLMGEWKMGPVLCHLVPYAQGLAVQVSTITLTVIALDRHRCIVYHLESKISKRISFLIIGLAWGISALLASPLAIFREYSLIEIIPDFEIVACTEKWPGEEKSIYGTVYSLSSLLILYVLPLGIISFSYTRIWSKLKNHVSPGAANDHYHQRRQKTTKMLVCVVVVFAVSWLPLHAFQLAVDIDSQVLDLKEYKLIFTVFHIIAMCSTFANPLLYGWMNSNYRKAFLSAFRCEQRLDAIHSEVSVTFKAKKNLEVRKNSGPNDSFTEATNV

Homo sapiens = species on record: Homo sapiens; experiment: Inhibition of human DOP/delta 2 receptor at 10 uM by CEREP assay
[8] = Inhibition of P2Y receptor at 10 uM by CEREP assay
[9] = target: 5-hydroxytryptamine receptor 3A (Homo sapiens) (UniProt P46098); experiment: Inhibition of human 5-HT3 receptor at 10 uM by CEREP assay
Sequence of 5-hydroxytryptamine receptor 3A (Homo sapiens) (P46098 whole entry): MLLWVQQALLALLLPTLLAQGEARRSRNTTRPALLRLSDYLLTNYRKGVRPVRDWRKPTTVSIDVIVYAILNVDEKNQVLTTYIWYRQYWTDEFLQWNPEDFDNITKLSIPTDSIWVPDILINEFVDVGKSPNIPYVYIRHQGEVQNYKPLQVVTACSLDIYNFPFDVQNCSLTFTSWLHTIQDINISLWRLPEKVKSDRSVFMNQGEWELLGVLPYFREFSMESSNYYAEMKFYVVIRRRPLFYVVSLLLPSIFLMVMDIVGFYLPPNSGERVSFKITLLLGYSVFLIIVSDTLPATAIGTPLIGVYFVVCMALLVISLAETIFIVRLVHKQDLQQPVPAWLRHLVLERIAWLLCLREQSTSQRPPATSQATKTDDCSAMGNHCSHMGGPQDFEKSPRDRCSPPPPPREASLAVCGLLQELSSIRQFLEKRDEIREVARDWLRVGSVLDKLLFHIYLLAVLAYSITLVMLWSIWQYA

[10] = target: 5-hydroxytryptamine receptor 7 (Homo sapiens) (UniProt P34969); experiment: Inhibition of human 5-HT7 receptor at 10 uM by CEREP assay
Sequence of 5-hydroxytryptamine receptor 7 (Homo sapiens) (P34969 whole entry): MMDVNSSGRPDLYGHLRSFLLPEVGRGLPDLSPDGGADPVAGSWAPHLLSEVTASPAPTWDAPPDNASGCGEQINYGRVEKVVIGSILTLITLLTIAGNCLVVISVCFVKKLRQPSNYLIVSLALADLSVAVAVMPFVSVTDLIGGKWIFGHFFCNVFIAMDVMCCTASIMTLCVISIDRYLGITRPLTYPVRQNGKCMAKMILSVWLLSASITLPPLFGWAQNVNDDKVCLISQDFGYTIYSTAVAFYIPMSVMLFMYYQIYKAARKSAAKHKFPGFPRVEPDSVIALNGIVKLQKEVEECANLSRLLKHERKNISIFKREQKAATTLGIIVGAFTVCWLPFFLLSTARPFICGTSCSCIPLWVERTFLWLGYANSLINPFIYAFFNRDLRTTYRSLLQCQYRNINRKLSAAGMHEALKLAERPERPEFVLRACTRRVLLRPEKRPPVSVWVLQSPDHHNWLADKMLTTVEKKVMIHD

[11] = target: Thyrotropin-releasing hormone receptor (Homo sapiens) (UniProt P34981); experiment: Inhibition of TRH receptor at 10 uM by CEREP assay
Sequence of Thyrotropin-releasing hormone receptor (Homo sapiens) (P34981 whole entry): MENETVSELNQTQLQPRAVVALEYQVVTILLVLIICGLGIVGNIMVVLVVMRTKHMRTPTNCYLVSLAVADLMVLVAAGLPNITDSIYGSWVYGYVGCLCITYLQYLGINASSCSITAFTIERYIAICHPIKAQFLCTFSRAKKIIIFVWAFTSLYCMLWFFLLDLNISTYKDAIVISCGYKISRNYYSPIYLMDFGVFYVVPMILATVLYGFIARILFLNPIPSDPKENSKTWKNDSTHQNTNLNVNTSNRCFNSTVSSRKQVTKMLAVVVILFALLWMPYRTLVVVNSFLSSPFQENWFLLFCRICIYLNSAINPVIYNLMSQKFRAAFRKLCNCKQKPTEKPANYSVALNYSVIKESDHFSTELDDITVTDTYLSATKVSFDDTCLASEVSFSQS

[12] = Inhibition of L-type Ca2+ channel diltiazem site at 10 uM by CEREP assay
[13] = Inhibition of K+v channel at 10 uM by CEREP assay
[14] = Inhibition of Cl- channel at 10 uM by CEREP assay
[15] = target: Sodium-dependent noradrenaline transporter (Homo sapiens) (UniProt P23975); experiment: Inhibition of human NE transporter at 10 uM by CEREP assay
Sequence of Sodium-dependent noradrenaline transporter (Homo sapiens) (P23975 whole entry): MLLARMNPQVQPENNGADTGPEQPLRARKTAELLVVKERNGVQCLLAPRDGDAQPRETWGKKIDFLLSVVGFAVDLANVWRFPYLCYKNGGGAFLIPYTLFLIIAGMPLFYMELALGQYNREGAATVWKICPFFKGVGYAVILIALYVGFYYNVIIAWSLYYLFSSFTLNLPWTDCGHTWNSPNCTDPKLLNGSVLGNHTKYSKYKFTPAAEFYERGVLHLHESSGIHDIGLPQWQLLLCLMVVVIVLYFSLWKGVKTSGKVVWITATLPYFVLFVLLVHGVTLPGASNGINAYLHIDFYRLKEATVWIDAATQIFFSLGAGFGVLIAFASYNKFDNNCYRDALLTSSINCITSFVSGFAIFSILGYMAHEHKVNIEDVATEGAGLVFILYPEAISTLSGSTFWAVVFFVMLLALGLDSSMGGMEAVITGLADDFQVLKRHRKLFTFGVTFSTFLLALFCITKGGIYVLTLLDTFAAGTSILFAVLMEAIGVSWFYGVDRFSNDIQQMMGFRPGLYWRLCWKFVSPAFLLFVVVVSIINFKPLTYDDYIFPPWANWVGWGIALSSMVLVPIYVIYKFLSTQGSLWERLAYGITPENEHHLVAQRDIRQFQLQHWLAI

[16] = target: Phosphodiesterase 3 (Homo sapiens) (UniProt Q14432+Q13370); experiment: Inhibition of human PDE3 at 10 uM by CEREP assay; format: protein assay
[17] = target: Phosphodiesterase 4 (Homo sapiens) (UniProt P27815+Q08499+Q07343+Q08493); experiment: Inhibition of human PDE4 at 10 uM by CEREP assay; format: protein assay
[18] = target: Phosphodiesterase 6 (Homo sapiens) (UniProt Q13956+P18545+P35913+O43924+P16499+P51160); experiment: Inhibition of human PDE6 at 10 uM by CEREP assay; format: protein assay
[19] = target: MAO-A (amine oxidase [flavin-containing] A) (Homo sapiens, UniProt P21397); experiment: Inhibition of human MAO-A at 10 uM by CEREP assay
[20] = target: Phenylethanolamine N-methyltransferase (Homo sapiens) (UniProt P11086); experiment: Inhibition of PNMT at 10 uM by CEREP assay
[21] = Inhibition of Guanylyl cyclase at 10 uM by CEREP assay
[22] = Inhibition of alpha 2 adrenergic receptor by CEREP assay
[23] = target: 5-hydroxytryptamine receptor 1A (Homo sapiens, UniProt P08908); experiment: Inhibition of human 5-HT1A receptor by CEREP assay
Sequence of 5-hydroxytryptamine receptor 1A (P08908 whole entry): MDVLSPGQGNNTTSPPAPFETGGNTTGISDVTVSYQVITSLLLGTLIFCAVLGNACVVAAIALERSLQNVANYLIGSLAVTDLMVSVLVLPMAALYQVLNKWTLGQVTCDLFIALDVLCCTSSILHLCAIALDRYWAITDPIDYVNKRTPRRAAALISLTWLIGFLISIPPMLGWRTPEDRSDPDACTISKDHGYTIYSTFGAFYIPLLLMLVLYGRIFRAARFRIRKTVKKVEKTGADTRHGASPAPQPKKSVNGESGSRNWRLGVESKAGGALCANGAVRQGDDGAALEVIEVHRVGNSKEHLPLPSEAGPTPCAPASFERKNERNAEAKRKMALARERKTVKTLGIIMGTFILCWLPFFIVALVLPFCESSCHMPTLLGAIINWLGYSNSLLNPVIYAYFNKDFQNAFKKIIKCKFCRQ

[24] = target: Glucagon receptor (Homo sapiens) (UniProt P47871); experiment: Inhibition of human glucagon receptor at 10 uM by CEREP assay
Sequence of Glucagon receptor (Homo sapiens) (P47871 whole entry): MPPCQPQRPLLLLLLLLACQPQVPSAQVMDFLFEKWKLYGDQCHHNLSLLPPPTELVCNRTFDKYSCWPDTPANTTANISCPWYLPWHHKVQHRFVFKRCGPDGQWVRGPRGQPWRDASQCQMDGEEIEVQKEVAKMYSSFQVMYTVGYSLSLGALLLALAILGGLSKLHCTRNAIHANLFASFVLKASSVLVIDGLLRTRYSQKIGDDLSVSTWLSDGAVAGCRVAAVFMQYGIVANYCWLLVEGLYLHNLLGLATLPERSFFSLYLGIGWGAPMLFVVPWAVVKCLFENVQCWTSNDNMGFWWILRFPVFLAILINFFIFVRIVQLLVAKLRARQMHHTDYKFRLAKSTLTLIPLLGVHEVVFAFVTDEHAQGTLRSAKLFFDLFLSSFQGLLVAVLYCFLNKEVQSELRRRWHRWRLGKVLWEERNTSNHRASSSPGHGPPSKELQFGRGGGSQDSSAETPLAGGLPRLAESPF

[25] = target: D(1B) dopamine receptor (Homo sapiens) (UniProt P21918); experiment: Inhibition of human D5 receptor at 10 uM by CEREP assay
[26] = target: C5a anaphylatoxin chemotactic receptor 1 (Homo sapiens) (UniProt P21730); experiment: Inhibition of human C5a receptor at 10 uM by CEREP assay
[27] = target: Type-2 angiotensin II receptor (Homo sapiens) (UniProt P50052); experiment: Inhibition of human AT2 receptor at 10 uM by CEREP assay
[28] = target: Type-1 angiotensin II receptor (Homo sapiens) (UniProt P30556); experiment: Inhibition of human AT1 receptor at 10 uM by CEREP assay
Sequence of Type-1 angiotensin II receptor (Homo sapiens) (P30556 whole entry): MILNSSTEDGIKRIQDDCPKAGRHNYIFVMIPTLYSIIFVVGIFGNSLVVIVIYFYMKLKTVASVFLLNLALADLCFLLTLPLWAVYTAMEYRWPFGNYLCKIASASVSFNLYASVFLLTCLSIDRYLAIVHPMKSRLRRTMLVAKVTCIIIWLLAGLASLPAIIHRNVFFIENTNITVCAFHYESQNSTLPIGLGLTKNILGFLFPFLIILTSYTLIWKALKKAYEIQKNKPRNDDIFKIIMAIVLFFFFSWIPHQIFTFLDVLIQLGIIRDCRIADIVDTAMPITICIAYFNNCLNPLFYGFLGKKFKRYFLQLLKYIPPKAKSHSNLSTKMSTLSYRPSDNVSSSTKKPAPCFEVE

[29] = Inhibition of alpha 2 adrenergic receptor at 10 uM by CEREP assay
[30] = target: Adenosine receptor A3 (Homo sapiens) (UniProt P0DMS8); experiment: Inhibition of human A3 receptor at 10 uM by CEREP assay
Sequence of Adenosine receptor A3 (Homo sapiens) (P0DMS8 whole entry): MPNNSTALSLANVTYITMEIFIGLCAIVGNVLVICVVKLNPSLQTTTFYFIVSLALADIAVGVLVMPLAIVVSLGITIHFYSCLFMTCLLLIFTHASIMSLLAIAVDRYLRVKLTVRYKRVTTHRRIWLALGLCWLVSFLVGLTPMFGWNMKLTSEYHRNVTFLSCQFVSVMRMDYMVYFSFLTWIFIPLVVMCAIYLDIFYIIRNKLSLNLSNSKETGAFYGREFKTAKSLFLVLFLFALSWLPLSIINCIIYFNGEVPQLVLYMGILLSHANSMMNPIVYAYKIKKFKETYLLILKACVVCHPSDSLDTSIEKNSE

[31] = target: Glutamate [NMDA] receptor (Homo sapiens) (UniProt Q05586+Q12879+Q13224+O15399+O60391+Q14957+Q8TCU5); experiment: Inhibition of human NMDA receptor at 10 uM by CEREP assay

For `CCc1cccc(CC)c1Cc1ncc[nH]1`, which inhibition [1] is on record?
Its inhibition is 12%.

And the inhibition [2]?
Its inhibition is -4%.

And the inhibition [3]?
The inhibition was 36%.

And the inhibition [4]?
Its inhibition is 25%.

What about the inhibition [5] of the same compound?
Its inhibition is 8%.

What about the inhibition [6] of the same compound?
The inhibition was 10%.

And the inhibition [7]?
Its inhibition is 15%.

What about the inhibition (Homo sapiens) of the same compound?
Its inhibition is 7%.

What about the inhibition [8] of the same compound?
The inhibition was 1%.

What about the inhibition [9] of the same compound?
Its inhibition is -6%.

And the inhibition [10]?
The inhibition was 54%.

What about the inhibition [11] of the same compound?
The inhibition was 0%.

And the inhibition [12]?
Its inhibition is 34%.

And the inhibition [13]?
Its inhibition is -1%.

And the inhibition [14]?
The inhibition was 3%.

And the inhibition [15]?
Its inhibition is -1%.

What about the inhibition [16] of the same compound?
The inhibition was -5%.

And the inhibition [17]?
Its inhibition is -2%.

And the inhibition [18]?
Its inhibition is 6%.

What about the inhibition at 10 µM [19] of the same compound?
The inhibition at 10 µM was -4%.

And the inhibition [20]?
The inhibition was 22%.

What about the inhibition [21] of the same compound?
Its inhibition is 1%.

And the Ki [22]?
The Ki was 2.4 µM.

And the Ki [23]?
Its Ki is 1.3 µM.

And the inhibition [24]?
Its inhibition is -5%.

And the inhibition [25]?
The inhibition was 17%.

What about the inhibition [26] of the same compound?
Its inhibition is -8%.

And the inhibition [27]?
The inhibition was -3%.

And the inhibition [28]?
Its inhibition is 2%.

What about the inhibition [29] of the same compound?
The inhibition was 73%.

And the inhibition [30]?
The inhibition was 2%.

And the inhibition [31]?
The inhibition was 2%.
